One block for each compound: values may come before it.
Key:
JAK2 = JAK2 (Homo sapiens, UniProt O60674); assay: Z′-LYTE kinase inhibition assay
[1] = tested on: NCI-H520 lung cancer xenograft; assay: NCI-H520 lung cancer subcutaneous xenograft model; assay type: in vivo, Balb/c nude mice; details: for T/C / TGI: Day 21; for Tumor volume at Day 21 / area of CD31 (tumor micro-vessel density, IHC): mean ± SEM; for area of CD31 (tumor micro-vessel density, IHC): n = 3, control 4.96 ± 0.62
MST4 = MST4 (Homo sapiens, UniProt Q9P289); assay: Z′-LYTE kinase inhibition assay
DYRK3 = DYRK3 (Homo sapiens, UniProt O43781); assay: Z′-LYTE kinase inhibition assay
p38α = p38α (Homo sapiens, UniProt Q16539); assay: Z′-LYTE kinase inhibition assay
HUVECs [2] = assay: Transwell invasion assay; assay type: cell-based, human; details: driven by 50 ng/mL hVEGF-165; dose-dependent; 0.5 μmol/L P < 0.01; 5.0 and 50.0 μmol/L P < 0.001
SRC = SRC (Homo sapiens, UniProt P12931); assay: Z′-LYTE kinase inhibition assay
HUVECs [3] = assay: HUVEC tube formation assay; assay type: cell-based, human; details: induced by 50 ng/mL hVEGF-165; 0.5 and 5.0 μmol/L; vs. hVEGF-165 control, P < 0.01
GSK3β = GSK3β (Homo sapiens, UniProt P49841); assay: Z′-LYTE kinase inhibition assay
Chain of GSK3β (P49841 whole entry): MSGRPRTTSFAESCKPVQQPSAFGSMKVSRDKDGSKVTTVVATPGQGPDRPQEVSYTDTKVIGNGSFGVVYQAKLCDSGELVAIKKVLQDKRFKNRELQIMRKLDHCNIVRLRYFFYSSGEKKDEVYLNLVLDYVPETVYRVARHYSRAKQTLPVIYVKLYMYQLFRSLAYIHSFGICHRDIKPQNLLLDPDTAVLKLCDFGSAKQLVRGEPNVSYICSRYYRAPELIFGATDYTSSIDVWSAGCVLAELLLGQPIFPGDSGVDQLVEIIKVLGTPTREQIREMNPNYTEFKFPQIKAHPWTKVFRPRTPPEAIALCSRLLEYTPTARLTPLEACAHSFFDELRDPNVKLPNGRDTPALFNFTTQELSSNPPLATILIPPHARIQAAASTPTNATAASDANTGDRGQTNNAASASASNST

[4] = tested on: phosphorylation of FGFR1‒4 and ERK; assay: Western blot, FGF/FGFRs/ERK signalling in HUVECs; assay type: cell-based, human; details: 5.0 μmol/L; induced by 50 ng/mL bFGF in HUVECs; P < 0.01
[5] = tested on: CT26 colon adenocarcinoma cells; assay: Tumor xenograft model in transgenic zebrafish; assay type: in vivo; details: 0.5 and 2.0 μmol/L in fish water, 7 days
JNK1 = JNK1 (Homo sapiens, UniProt P45983); assay: Z′-LYTE kinase inhibition assay
[6] = Pharmacokinetic study in rats; assay type: in vivo; details: both, Sprague-Dawley, rat, plasma
VEGFR3 = VEGFR3 (Homo sapiens, UniProt P35916); assay: Z′-LYTE kinase inhibition assay
[7] = tested on: A549 lung cancer xenograft; assay: A549 lung cancer subcutaneous xenograft model; assay type: in vivo, Balb/c nude mice; details: for T/C / TGI: Day 21; for Tumor volume at Day 21 / area of CD31 (tumor micro-vessel density, IHC): mean ± SEM; for area of CD31 (tumor micro-vessel density, IHC): n = 3, control 3.38 ± 0.49
CHK1 = CHK1 (Homo sapiens, UniProt O14757); assay: Z′-LYTE kinase inhibition assay
Chain of CHK1 (O14757 whole entry): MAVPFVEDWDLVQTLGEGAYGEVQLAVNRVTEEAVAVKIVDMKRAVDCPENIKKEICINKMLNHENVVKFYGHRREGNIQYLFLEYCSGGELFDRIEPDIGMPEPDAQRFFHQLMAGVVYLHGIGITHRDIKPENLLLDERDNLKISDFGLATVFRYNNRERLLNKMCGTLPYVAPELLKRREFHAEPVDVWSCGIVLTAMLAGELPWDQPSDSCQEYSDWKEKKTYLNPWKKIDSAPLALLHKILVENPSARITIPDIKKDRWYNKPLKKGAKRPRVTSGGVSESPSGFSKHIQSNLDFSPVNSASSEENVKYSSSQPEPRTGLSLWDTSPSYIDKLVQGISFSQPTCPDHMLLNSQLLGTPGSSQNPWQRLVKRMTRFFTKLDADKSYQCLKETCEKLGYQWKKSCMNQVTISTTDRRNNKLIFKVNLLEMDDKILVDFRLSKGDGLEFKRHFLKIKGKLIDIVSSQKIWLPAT

MAP4K4 = MAP4K4 (Homo sapiens, UniProt O95819); assay: Z′-LYTE kinase inhibition assay
PKA = PKA (Homo sapiens, UniProt P17612); assay: Z′-LYTE kinase inhibition assay
HUVECs [8] = details: 5.0 μmol/L (P < 0.05), 50.0 μmol/L (P < 0.001) vs. hVEGF-165 treated control
FGFR2 = FGFR2 (Homo sapiens, UniProt P21802); assay: Z′-LYTE kinase inhibition assay
Chain of FGFR2 (P21802 22-821): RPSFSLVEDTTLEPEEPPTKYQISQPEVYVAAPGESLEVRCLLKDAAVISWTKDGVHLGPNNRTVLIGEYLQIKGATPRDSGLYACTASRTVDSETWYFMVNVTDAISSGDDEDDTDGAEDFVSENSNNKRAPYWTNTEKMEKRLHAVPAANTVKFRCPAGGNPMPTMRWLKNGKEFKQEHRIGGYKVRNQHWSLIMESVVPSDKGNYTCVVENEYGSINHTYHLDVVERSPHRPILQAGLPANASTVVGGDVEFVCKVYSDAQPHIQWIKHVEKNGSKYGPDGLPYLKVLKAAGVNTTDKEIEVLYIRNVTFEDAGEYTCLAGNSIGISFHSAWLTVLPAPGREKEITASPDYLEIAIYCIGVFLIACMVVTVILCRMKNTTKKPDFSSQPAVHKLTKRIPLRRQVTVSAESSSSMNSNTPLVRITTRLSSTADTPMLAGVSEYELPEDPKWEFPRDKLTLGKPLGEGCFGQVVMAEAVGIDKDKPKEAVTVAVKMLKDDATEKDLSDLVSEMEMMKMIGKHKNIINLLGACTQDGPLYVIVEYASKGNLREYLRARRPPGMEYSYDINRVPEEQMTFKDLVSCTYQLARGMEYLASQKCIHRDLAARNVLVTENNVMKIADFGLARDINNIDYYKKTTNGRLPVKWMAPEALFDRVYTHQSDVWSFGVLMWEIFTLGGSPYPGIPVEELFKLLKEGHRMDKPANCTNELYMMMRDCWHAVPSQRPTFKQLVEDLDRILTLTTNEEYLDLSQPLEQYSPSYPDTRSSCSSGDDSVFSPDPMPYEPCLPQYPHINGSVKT

HBVPs = assay: PDGF-BB-induced HBVPs proliferation; assay type: cell-based; details: Homo sapiens, 48 h, read-out: IC50 HBVPs
TAOK2 = TAOK2 (Homo sapiens, UniProt Q9UL54); assay: Z′-LYTE kinase inhibition assay
Chain of TAOK2 (Q9UL54 whole entry): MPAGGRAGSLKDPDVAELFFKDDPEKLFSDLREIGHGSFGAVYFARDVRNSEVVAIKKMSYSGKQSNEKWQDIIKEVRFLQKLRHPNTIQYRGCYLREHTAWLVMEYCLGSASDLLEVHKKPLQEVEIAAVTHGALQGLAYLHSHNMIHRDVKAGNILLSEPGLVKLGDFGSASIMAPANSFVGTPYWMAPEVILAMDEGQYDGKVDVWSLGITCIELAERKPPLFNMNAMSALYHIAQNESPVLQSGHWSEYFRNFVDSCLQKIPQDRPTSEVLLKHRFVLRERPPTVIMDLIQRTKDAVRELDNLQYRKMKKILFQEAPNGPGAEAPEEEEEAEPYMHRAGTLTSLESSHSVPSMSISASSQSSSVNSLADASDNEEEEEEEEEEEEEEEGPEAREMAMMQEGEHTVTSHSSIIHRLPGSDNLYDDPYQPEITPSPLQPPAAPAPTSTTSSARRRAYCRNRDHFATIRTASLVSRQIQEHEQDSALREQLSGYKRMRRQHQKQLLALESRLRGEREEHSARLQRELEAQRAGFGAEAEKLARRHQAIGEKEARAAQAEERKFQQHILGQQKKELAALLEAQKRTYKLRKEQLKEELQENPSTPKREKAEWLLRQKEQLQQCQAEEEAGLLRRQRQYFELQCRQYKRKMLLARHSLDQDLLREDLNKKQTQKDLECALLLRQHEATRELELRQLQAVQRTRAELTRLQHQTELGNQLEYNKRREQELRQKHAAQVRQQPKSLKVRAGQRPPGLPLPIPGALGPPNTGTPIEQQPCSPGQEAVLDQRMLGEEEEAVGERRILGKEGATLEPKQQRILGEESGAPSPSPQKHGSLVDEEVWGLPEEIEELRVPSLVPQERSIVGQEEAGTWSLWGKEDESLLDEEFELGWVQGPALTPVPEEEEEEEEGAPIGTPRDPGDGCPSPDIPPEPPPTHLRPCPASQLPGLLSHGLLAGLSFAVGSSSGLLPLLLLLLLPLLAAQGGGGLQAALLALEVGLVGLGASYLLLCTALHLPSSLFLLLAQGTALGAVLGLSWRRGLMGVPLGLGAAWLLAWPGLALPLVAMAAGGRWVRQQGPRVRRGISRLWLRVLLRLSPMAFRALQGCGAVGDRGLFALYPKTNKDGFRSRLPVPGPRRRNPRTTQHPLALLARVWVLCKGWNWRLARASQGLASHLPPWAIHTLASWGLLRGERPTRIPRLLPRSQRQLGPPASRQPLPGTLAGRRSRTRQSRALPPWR

MAPKAPK2 = MAPKAPK2 (Homo sapiens, UniProt P49137); assay: Z′-LYTE kinase inhibition assay
Chain of MAPKAPK2 (P49137 whole entry): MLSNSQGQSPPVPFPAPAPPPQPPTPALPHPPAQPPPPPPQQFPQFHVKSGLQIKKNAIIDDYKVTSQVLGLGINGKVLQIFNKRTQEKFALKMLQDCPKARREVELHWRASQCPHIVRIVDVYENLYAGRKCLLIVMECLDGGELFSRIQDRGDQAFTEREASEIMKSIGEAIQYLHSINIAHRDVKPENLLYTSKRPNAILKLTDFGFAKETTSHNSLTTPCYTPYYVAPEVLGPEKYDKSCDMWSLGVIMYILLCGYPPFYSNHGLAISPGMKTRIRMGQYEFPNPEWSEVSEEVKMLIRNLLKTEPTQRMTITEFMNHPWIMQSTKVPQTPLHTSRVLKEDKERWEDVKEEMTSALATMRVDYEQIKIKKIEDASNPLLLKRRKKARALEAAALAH

[9] = H&E staining of vital organs of treated mice; assay type: in vivo, nude mice; details: 100 and 200 mg/kg, p.o., QD × 3 weeks
HUVECs [10] = assay: VEGF-induced HUVECs proliferation; assay type: cell-based; details: Homo sapiens, HUVEC, 72 h, read-out: IC50 HUVECs
[11] = Pharmacokinetic study in beagles; assay type: in vivo; details: both, beagle, dog, plasma
[12] = tested on: phosphorylation of PDGFRβ and ERK; assay: Western blot, PDGF/PDGFRβ/ERK signalling in HBVPs; assay type: cell-based, human; details: 0.5 and 5.0 μmol/L; induced by 50 ng/mL PDGF-BB in HBVPs
PDK1 = PDK1 (Homo sapiens, UniProt O15530); assay: Z′-LYTE kinase inhibition assay
EphA2 = EphA2 (Homo sapiens, UniProt P29317); assay: Z′-LYTE kinase inhibition assay
[13] = tested on: patient-derived tumor (LI-03-0020) xenograft; assay: Liver cancer patient-derived tumor xenograft; assay type: in vivo, Balb/c nude mice
CAMK2α = CAMK2α (Homo sapiens, UniProt Q9UQM7); assay: Z′-LYTE kinase inhibition assay
CK1α = CK1α (Homo sapiens, UniProt P48729); assay: Z′-LYTE kinase inhibition assay
Chain of CK1α (P48729 whole entry): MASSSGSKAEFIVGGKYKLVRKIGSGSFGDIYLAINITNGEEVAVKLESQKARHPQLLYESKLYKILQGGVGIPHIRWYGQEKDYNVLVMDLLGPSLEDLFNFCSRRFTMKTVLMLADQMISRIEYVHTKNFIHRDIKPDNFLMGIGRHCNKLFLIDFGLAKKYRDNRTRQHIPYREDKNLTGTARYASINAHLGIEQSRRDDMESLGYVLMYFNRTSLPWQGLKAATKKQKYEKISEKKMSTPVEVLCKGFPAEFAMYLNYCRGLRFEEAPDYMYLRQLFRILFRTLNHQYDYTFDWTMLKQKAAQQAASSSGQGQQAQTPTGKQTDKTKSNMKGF

[14] = tested on: phosphorylation of VEGFR2 and ERK; assay: Western blot, VEGF/VEGFR2/ERK signalling in HUVECs; assay type: cell-based, human; details: 5.0 μmol/L; induced by 50 ng/mL hVEGF 165 in HUVECs; P < 0.01
CDK2 = CDK2 (Homo sapiens, UniProt P24941); assay: Z′-LYTE kinase inhibition assay
VEGFR2 = VEGFR2 (Homo sapiens, UniProt P35968); assay: Z′-LYTE kinase inhibition assay
Chain of VEGFR2 (P35968 20-1356): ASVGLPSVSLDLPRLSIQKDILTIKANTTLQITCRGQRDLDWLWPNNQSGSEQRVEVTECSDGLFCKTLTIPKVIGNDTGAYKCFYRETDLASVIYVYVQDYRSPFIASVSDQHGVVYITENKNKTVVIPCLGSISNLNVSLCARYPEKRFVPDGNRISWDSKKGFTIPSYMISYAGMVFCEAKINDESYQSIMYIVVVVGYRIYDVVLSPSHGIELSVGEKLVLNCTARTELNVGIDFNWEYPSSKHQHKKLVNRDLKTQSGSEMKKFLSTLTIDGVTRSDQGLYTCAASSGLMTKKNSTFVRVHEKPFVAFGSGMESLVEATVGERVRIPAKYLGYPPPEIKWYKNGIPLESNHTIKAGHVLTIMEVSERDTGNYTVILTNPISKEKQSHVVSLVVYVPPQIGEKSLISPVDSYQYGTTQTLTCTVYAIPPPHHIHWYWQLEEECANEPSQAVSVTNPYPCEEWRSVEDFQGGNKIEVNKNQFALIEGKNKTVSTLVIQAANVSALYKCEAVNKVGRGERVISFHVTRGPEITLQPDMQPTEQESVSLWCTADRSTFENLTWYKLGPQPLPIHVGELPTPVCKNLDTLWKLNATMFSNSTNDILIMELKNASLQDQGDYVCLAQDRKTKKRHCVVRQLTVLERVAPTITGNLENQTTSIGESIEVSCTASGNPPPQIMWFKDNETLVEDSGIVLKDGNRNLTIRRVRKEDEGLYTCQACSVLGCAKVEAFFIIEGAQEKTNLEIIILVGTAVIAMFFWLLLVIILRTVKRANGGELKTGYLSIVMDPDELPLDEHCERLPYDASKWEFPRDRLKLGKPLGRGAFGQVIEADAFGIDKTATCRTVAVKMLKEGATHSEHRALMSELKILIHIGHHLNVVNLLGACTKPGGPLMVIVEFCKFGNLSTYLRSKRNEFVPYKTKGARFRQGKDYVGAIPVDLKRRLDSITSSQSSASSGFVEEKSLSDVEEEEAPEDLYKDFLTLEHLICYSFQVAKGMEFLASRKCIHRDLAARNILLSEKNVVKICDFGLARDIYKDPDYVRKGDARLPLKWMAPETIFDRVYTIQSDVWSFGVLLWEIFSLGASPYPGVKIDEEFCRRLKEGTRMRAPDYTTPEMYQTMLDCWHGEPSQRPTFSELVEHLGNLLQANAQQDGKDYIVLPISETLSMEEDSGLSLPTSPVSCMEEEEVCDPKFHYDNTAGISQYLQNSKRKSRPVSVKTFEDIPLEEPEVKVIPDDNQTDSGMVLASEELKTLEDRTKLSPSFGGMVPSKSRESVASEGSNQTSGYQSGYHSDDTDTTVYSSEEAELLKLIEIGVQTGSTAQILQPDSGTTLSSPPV

FGFR1 = FGFR1 (Homo sapiens, UniProt P11362); assay: Z′-LYTE kinase inhibition assay
PDGFRβ = PDGFRβ (Homo sapiens, UniProt P09619); assay: Z′-LYTE kinase inhibition assay
[15] = liver cancer PDX model, 200 mg/kg oral QD, Day 21

- IC50 (JAK2): > 10 µM
- IC50 (MST4): > 10 µM
- IC50 (DYRK3): > 10 µM
- IC50 (p38α): > 3.33 µM
- IC50 (SRC): 2650 nM
- IC50 (GSK3β): > 10 µM
- IC50 (JNK1): > 10 µM
- AUC(0-inf) ([6]; iv, 3 mg/kg): 35.2 ± 8.3 µM·h
- AUC(0-t) ([6]; iv, 3 mg/kg): 35 ± 8.2 µM·h
- Cmax ([6]; iv, 3 mg/kg): 40.4 ± 3 µM
- Vd ([6]; iv, 3 mg/kg): 0.26 ± 0.05 L/kg
- clearance ([6]; iv, 3 mg/kg): 3.24 ± 0.81 mL/min/kg
- half-life ([6]; iv, 3 mg/kg): 70.8 ± 10.8 min
- AUC(0-inf) ([6]; po, 15 mg/kg): 77.7 ± 39.6 µM·h
- AUC(0-t) ([6]; po, 15 mg/kg): 74.6 ± 36.3 µM·h
- Cmax ([6]; po, 15 mg/kg): 26 ± 13.3 µM
- Tmax ([6]; po, 15 mg/kg): 34.8 ± 12 min
- bioavailability ([6]; po, 15 mg/kg): 42%
- half-life ([6]; po, 15 mg/kg): 133 ± 23.4 min
- AUC(0-inf) ([6]; po, 50 mg/kg): 110 ± 84.9 µM·h
- AUC(0-t) ([6]; po, 50 mg/kg): 110 ± 84.9 µM·h
- Cmax ([6]; po, 50 mg/kg): 32.3 ± 11.3 µM
- Tmax ([6]; po, 50 mg/kg): 32.4 ± 15 min
- bioavailability ([6]; po, 50 mg/kg): 18.7%
- half-life ([6]; po, 50 mg/kg): 120 ± 33 min
- AUC(0-inf) ([6]; po, 50 mg/kg/day): 151 ± 63.5 µM·h
- AUC(0-t) ([6]; po, 50 mg/kg/day): 160 ± 60.3 µM·h
- Cmax at 7 days ([6]; po, 50 mg/kg/day): 46.5 ± 13.9 µM
- Tmax at 7 days ([6]; po, 50 mg/kg/day): 1.42 ± 0.67 h
- half-life at 7 days ([6]; po, 50 mg/kg/day): 130 ± 33 min
- AUC(0-inf) ([6]; po, 150 mg/kg): 233 ± 158 µM·h
- AUC(0-t) ([6]; po, 150 mg/kg): 232 ± 158 µM·h
- Cmax ([6]; po, 150 mg/kg): 48.7 ± 9.5 µM
- Tmax ([6]; po, 150 mg/kg): 94.8 ± 136 min
- bioavailability ([6]; po, 150 mg/kg): 13%
- half-life ([6]; po, 150 mg/kg): 152 ± 48 min
- IC50 (VEGFR3): 8.5 nM
- IC50 (CHK1): > 10 µM
- IC50 (MAP4K4): 79 nM
- IC50 (PKA): > 10 µM
- IC50 (FGFR2): 15.5 nM
- IC50 (TAOK2): > 10 µM
- IC50 (MAPKAPK2): > 10 µM
- pathologic changes in heart, liver, spleen, lung and kidney (H&E) [9]: No significant pathologic changes
- AUC(0-inf) ([11]; iv, 2 mg/kg): 5.13 ± 0.9 µM·h
- AUC(0-t) ([11]; iv, 2 mg/kg): 5.1 ± 0.9 µM·h
- Cmax ([11]; iv, 2 mg/kg): 4.36 ± 0.96 µM
- Vd ([11]; iv, 2 mg/kg): 1.45 ± 0.33 L/kg
- clearance ([11]; iv, 2 mg/kg): 14.5 ± 2.74 mL/min/kg
- half-life ([11]; iv, 2 mg/kg): 295 ± 131 min
- AUC(0-inf) ([11]; po, 10 mg/kg): 20.2 ± 20.2 µM·h
- AUC(0-t) ([11]; po, 10 mg/kg): 19.6 ± 20.2 µM·h
- Cmax ([11]; po, 10 mg/kg): 6.28 ± 6.57 µM
- Tmax ([11]; po, 10 mg/kg): 1.25 ± 0.612 h
- bioavailability ([11]; po, 10 mg/kg): 76.9%
- half-life ([11]; po, 10 mg/kg): 346 ± 130 min
- AUC(0-inf) ([11]; po, 30 mg/kg): 51.8 ± 62.3 µM·h
- AUC(0-t) ([11]; po, 30 mg/kg): 50 ± 58.8 µM·h
- Cmax ([11]; po, 30 mg/kg): 16.2 ± 16.5 µM
- Tmax ([11]; po, 30 mg/kg): 0.917 ± 0.585 h
- bioavailability ([11]; po, 30 mg/kg): 65.4%
- half-life ([11]; po, 30 mg/kg): 315 ± 61.8 min
- AUC(0-inf) ([11]; po, 30 mg/kg/day): 37.9 ± 31.9 µM·h
- AUC(0-t) ([11]; po, 30 mg/kg/day): 23.7 ± 16.1 µM·h
- Cmax at 7 days ([11]; po, 30 mg/kg/day): 6.97 ± 5.26 µM
- Tmax at 7 days ([11]; po, 30 mg/kg/day): 1.08 ± 0.736 h
- half-life ([11]; po, 30 mg/kg/day): 738 ± 756 min
- AUC(0-inf) ([11]; po, 100 mg/kg): 230 ± 51.5 µM·h
- AUC(0-t) ([11]; po, 100 mg/kg): 199 ± 90.5 µM·h
- Cmax ([11]; po, 100 mg/kg): 47.8 ± 20.8 µM
- Tmax ([11]; po, 100 mg/kg): 2.33 ± 0.816 h
- bioavailability ([11]; po, 100 mg/kg): 78%
- half-life ([11]; po, 100 mg/kg): 179 ± 42 min
- IC50 (PDK1): > 10 µM
- IC50 (EphA2): > 3.33 µM
- IC50 (CAMK2α): > 10 µM
- IC50 (CK1α): > 10 µM
- IC50 (CDK2): > 10 µM
SMILES: COc1cc2nccc(Oc3ccc(NC(=S)NC4CC4)c(Cl)c3F)c2cc1C(N)=O [WXFL-152, 4-(3-Chloro-4-(3-cyclopropylthioureido)-2-fluorophenoxy)-7-methoxyquinoline-6-carboxamide]
- T/C ([1]; 50 mg/kg p.o. QD): 58%
- TGI ([1]; 50 mg/kg p.o. QD): 51%
- Tumor volume at Day 21 ([1]; 50 mg/kg p.o. QD): 704 ± 107 mm^3
- area of CD31 (tumor micro-vessel density, IHC) ([1]; 50 mg/kg): 1.96 ± 0.05
- T/C ([1]; 100 mg/kg p.o. QD): 36%
- TGI ([1]; 100 mg/kg p.o. QD): 72%
- Tumor volume at Day 21 ([1]; 100 mg/kg p.o. QD): 478 ± 85 mm^3
- area of CD31 (tumor micro-vessel density, IHC) ([1]; 100 mg/kg): 1.83 ± 0.26
- invasion of HUVECs (HUVECs [2]): significantly inhibited
- tube formation of HUVECs (HUVECs [3]): significantly suppressed
- phosphorylation of FGFR1‒4 and ERK [4]: significantly inhibited
- tumor angiogenesis and tumor size in zebrafish xenograft [5]: few tumors exhibiting angiogenesis and small tumors
- T/C ([7]; 50 mg/kg p.o. QD): 29%
- TGI ([7]; 50 mg/kg p.o. QD): 78%
- Tumor volume at Day 21 ([7]; 50 mg/kg p.o. QD): 430 ± 42 mm^3
- area of CD31 (tumor micro-vessel density, IHC) ([7]; 50 mg/kg): 2.20 ± 0.29
- T/C ([7]; 100 mg/kg p.o. QD): 27%
- TGI ([7]; 100 mg/kg p.o. QD): 80%
- Tumor volume at Day 21 ([7]; 100 mg/kg p.o. QD): 401 ± 38 mm^3
- area of CD31 (tumor micro-vessel density, IHC) ([7]; 100 mg/kg): 1.27 ± 0.48
- migration of HUVECs (wound healing) (HUVECs [8]): appreciably inhibited
- IC50 (HBVPs): 1940 nM
- IC50 (HUVECs [10]): 71 nM
- phosphorylation of PDGFRβ and ERK [12]: significantly blocked
- area of CD31 (tumor micro-vessel density, IHC) ([13]; liver PDX model, 200 mg/kg, mean ± SEM, n = 3, control 0.30 ± 0.10): 0.19 ± 0.06
- T/C [13, 15]: 35%
- TGI [13, 15]: 76%
- Tumor volume at Day 21 ([13]; liver cancer PDX model, 200 mg/kg oral QD, mean ± SEM): 334 ± 69 mm^3
- phosphorylation of VEGFR2 and ERK [14]: significantly suppressed

- IC50 (VEGFR2): 9.4 nM
- IC50 (FGFR1): 188 nM
- IC50 (PDGFRβ): 143 nM
SMILES: COc1cc2nccc(Oc3ccc(NC(=S)NC4CC4)c(Cl)c3)c2cc1C(N)=O [WXFL-255, 4-(3-chloro-4-(3-cyclopropylthioureido)phenoxy)-7-methoxyquinoline-6-carboxamide]
- IC50 (HUVECs [10]): 90.2 nM

— paper PMC7488503 (Acta Pharmaceutica Sinica. B, 2020)
